Here are results for seven compounds from US12558356B2, “Immunophilin binding agents and uses thereof” (The Regents of the University of California, priority 2019, dated 2026).

Read-outs that look alike come from different tables or passages of the source.

Experiment [1] deals with K562 cells. The experiment in a line: Growth inhibition of K562 cells. The format is cell-based. To be noted: Homo sapiens. The text has this:
The unique dependency of FK506-dasatinib on FKBP proteins implied that it may be exploited to modulate the function of these molecules. […]. Meanwhile, the blocker compound […] dasatinib-treated samples (FIG. 13A, lanes 2 and 5). […].

For experiment [2], the system named is Jurkat cells. The experiment in a line: CD3 crosslinking (OKT3)-triggered T cell activation, phosphotyrosine Western blot. The format is cell-based. To be noted: 100 nM, Jurkat cells stimulated with OKT3.
Experiment [3] deals with Jurkat cells. As to the kind of experiment: Drug washout, phosphotyrosine recovery (residence time in cells). The format is cell-based. Particulars: 100 nM for 1 h, then drug removed.
Experiment [4] concerns 139 kinases captured by the probe in Jurkat cells. As to the kind of experiment: XO44 chemoproteomic probe kinome occupancy in live cells. The format is cell-based. To be noted: 100 nM, among 139 kinases captured by XO44 in Jurkat cells.
The test system of experiment [5] is glioblastoma PDX. Particulars: mice; Fan, Q. et al., 2017, Cancer Cell; cited from earlier work.
The test system of experiment [6] is MCF7 cells. As to the kind of experiment: FKBP dependence of Rapamycin/RapaLink-1 function in MCF7 cells. The format is cell-based. To be noted: MCF7 cells dosed at 50% confluency, 37° C., 24 h. The method, then:
FIG. 4. […] MCF7 cells dosed at 50% confluency, 37° C., 24 h.

In experiment [7] the test system is p-S6 level in MCF7 cells. The experiment in a line: Western blot of p-S6 level in MCF7 cells after combination treatment with Rapa/Rapalink and candidate compound (blockade score). The format is cell-based. Particulars: 24 h, p-S6 level as fraction of DMSO control; for RapaLink-1 Blockade: 10 nM Rapalink + 10 μM candidate compound.
Experiment [8] concerns mTOR signaling in brain and skeletal muscle. The experiment in a line: In vivo brain/periphery mTOR inhibition in mouse model, blocker combined with rapamycin or RapaLink-1.
Experiment [9] deals with FKBP12 (Homo sapiens (Human), UniProt P62942). The experiment in a line: FKBP12 binding assay (fluorescence polarization).
Chain of FKBP12 (P62942 whole entry): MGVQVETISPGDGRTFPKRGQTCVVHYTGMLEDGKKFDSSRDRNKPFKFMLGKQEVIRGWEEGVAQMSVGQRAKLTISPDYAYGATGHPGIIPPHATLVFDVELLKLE
The subject of experiment [10] is p-Tyr signaling in Jurkat cells. The experiment in a line: Phosphotyrosine / TCR signaling in Jurkat cells (Western blot). The format is cell-based. Particulars: Jurkat cells, 100 nM, 1 h, washed 3 times with PBS.
Method: Jurkat cells (1×10^6/mL) were treated with 100 nM of the indicated compounds for 1 h, then were washed 3 times with PBS and resuspended in culture media. Samples were taken at the indicated time points and lysed immediately.

As to `Cc1nc(Nc2ncc(C(=O)Nc3c(C)cccc3Cl)s2)cc(N2CCN(CCO)CC2)n1` [Dasatinib, dasatinib, reference compound], the IC50 in [1] (K562, absent ZZY05-026 (RapaBlock)) was 0.063 nM; in experiment [1] (K562, with 10 μM RapaBlock) it was 0.16 nM. In experiment [2], the “Total phospho-tyrosine level and phosphorylation of TCR signaling proteins” value was “dampened”. Moreover, the “Time after drug washout to restored phosphotyrosine signal” value in [3] was at most 1 h. For the same compound, the “Number of kinases inhibited >70%” value in experiment [4] stood at 9.
In the case of `CO[C@@H]1C[C@@H]2CC[C@@H](C)[C@@](O)(O2)C(=O)C(=O)N2CCCC[C@@H]2C(=O)O[C@H]([C@H](C)C[C@H]2CC[C@H](OCCOCc3cn(CCOCCOCCOCCOCCOCCOCCOCCOCCC(=O)NCCCCn4nc(-c5ccc6oc(N)nc6c5)c5c(N)ncnc54)nn3)[C@H](OC)C2)CC(=O)[C@H](C)/C=C(\C)[C@H](O)[C@@H](OC)C(=O)[C@H](C)C[C@H](C)/C=C/C=C/C=C/1C` [RapaLink-1], in experiment [5], the “growth of glioblastoma PDX” value is on record as “suppresses growth”. Besides, in experiment [6], the “dependence of function on FKBP” value is listed as “FKBP is essential for the function”.
In the case of `CO[C@H]1C[C@@H]2CC[C@@H](C)[C@@](O)(O2)C(=O)C(=O)N2CCCC[C@H]2C(=O)O[C@H]([C@H](C)C[C@@H]2CC[C@@H](O)[C@H](OC)C2)CC(=O)[C@H](C)/C=C(\C)[C@@H](O)[C@@H](OC)C(=O)[C@H](C)C[C@H](C)/C=C/C=C/C=C/1C` [Rapamycin, rapamycin], the “dependence of function on FKBP” value in experiment [6] is “FKBP is essential for the function”.
Consider `CCC(C)(C)C(=O)C(=O)N1CCCC[C@H]1C(=O)O[C@H](CCc1ccc(OC)c(OC)c1)c1cccc(NC(=O)Cc2cccc[n+]2[O-])c1` [ZZY03-087], for which the “Rapamycin Blockade” value in [7] (10 nM Rapa + 10 μM candidate compound) is 3 (>70%). Also, the “RapaLink-1 Blockade” value in [7] is on record as 0 (<20%). The “In Vivo” value in [8] (combination with rapamycin, muscle and brain) is “Blocks rapamycin in muscle, potentiates rapamycin in brain”. For the same compound, in [9] (read-out: Kd FKBP12), the Kd stood at 28.8 nM.
For the compound `CO[C@H]1C/C(C)=C/[C@@H](CCCC(=O)N2CCN(c3cc(Nc4ncc(C(=O)Nc5c(C)cccc5Cl)s4)nc(C)n3)CC2)C(=O)C[C@H](O)[C@@H](C)[C@@H](/C(C)=C/[C@@H]2CC[C@@H](O)[C@H](OC)C2)OC(=O)[C@@H]2CCCCN2C(=O)C(=O)[C@]2(O)O[C@H]([C@@H](OC)C1)[C@@H](OC)C[C@H]2C` [ZZY05-022], the “durability of effect after washout” value in experiment [10] is given as “durable after washout”.
For `CO[C@H]1C/C(C)=C/[C@@H](CCCc2ccccn2)C(=O)C[C@H](O)[C@@H](C)[C@@H](/C(C)=C/[C@@H]2CC[C@@H](O)[C@H](OC)C2)OC(=O)[C@@H]2CCCCN2C(=O)C(=O)[C@]2(O)O[C@H]([C@@H](OC)C1)[C@@H](OC)C[C@H]2C` [ZZY05-085], in [7], the “RapaLink-1 Blockade” value was 3 (>70%). For the same compound, in experiment [8] (combination with Rapalink-1, dose not given, brain), the “In Vivo” value is “Appears to have blocked Rapalink-1 in brain”. Further, binding in experiment [9] was put at a Kd of 1.5 nM.
As to `CO[C@H]1C/C(C)=C/[C@@H](CCCc2cccc[n+]2[O-])C(=O)C[C@H](O)[C@@H](C)[C@@H](/C(C)=C/[C@@H]2CC[C@@H](O)[C@H](OC)C2)OC(=O)[C@@H]2CCCCN2C(=O)C(=O)[C@]2(O)O[C@H]([C@@H](OC)C1)[C@@H](OC)C[C@H]2C` [ZZY05-092 / ZZY06-041], the “RapaLink-1 Blockade” value in [7] is listed as 3 (>70%). In addition, the “In Vivo” value in experiment [8] (1 mg/kg Rapalink-1 + 40 mg/kg compound, muscle and brain) is reported as “Dose: 1 mg/kg Rapalink-1 + 40 mg/kg ZZY05- 092 Blocks Rapalink-1 in muscle; Potentiates Rapalink-1 in brain”. Besides, the Kd in experiment [9] (read-out: Kd FKBP12) stood at 2.5 nM.
